Results from the supplement of paper PMC10307832.

Key:
Assay in all cases: relative viability (nuclei count vs DMSO), 5 days (fraction); higher = more cells survive
Everolimus + Navitoclax = compound: CO[C@H]1C[C@@H]2CC[C@@H](C)[C@@](O)(O2)C(=O)C(=O)N2CCCC[C@H]2C(=O)O[C@H]([C@H](C)C[C@@H]2CC[C@@H](OCCO)[C@H](OC)C2)CC(=O)[C@H](C)/C=C(\C)[C@@H](O)[C@@H](OC)C(=O)[C@H](C)C[C@H](C)/C=C/C=C/C=C/1C [Everolimus] + CC1(C)CCC(c2ccc(Cl)cc2)=C(CN2CCN(c3ccc(C(=O)NS(=O)(=O)c4ccc(N[C@H](CCN5CCOCC5)CSc5ccccc5)c(S(=O)(=O)C(F)(F)F)c4)cc3)CC2)C1 [Navitoclax] (partner 0.5 µM)
Procedure, shortened: (§1)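 A single step with final 0.05% Triton X-100, 1% formaldehyde and 1 ug/ml Hoechst fixed the cells and stained nuclei 5 days after treatment. Lung cancer cell lines in 1536-well plates had been treated by pin tool the day after seeding with one drug alone or a fixed anchor-drug dose plus five library-drug doses (not always all listed) in √10 steps, and nuclei were counted on 4× images. Relative viability is the ratio of nuclei in treated wells to nuclei in vehicle wells, taken as the median of duplicate plates.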

Everolimus + Linsitinib = compound: CO[C@H]1C[C@@H]2CC[C@@H](C)[C@@](O)(O2)C(=O)C(=O)N2CCCC[C@H]2C(=O)O[C@H]([C@H](C)C[C@@H]2CC[C@@H](OCCO)[C@H](OC)C2)CC(=O)[C@H](C)/C=C(\C)[C@@H](O)[C@@H](OC)C(=O)[C@H](C)C[C@H](C)/C=C/C=C/C=C/1C [Everolimus] + C[C@]1(O)C[C@@H](c2nc(-c3ccc4ccc(-c5ccccc5)nc4c3)c3c(N)nccn32)C1 [Linsitinib] (partner 1 µM)
Procedure, shortened: as §1

Everolimus + Alpelisib = compound: CO[C@H]1C[C@@H]2CC[C@@H](C)[C@@](O)(O2)C(=O)C(=O)N2CCCC[C@H]2C(=O)O[C@H]([C@H](C)C[C@@H]2CC[C@@H](OCCO)[C@H](OC)C2)CC(=O)[C@H](C)/C=C(\C)[C@@H](O)[C@@H](OC)C(=O)[C@H](C)C[C@H](C)/C=C/C=C/C=C/1C [Everolimus] + Cc1nc(NC(=O)N2CCC[C@H]2C(N)=O)sc1-c1ccnc(C(C)(C)C(F)(F)F)c1 [Alpelisib] (partner 2 µM)
Procedure, shortened: as §1

Everolimus + Vorinostat = compound: CO[C@H]1C[C@@H]2CC[C@@H](C)[C@@](O)(O2)C(=O)C(=O)N2CCCC[C@H]2C(=O)O[C@H]([C@H](C)C[C@@H]2CC[C@@H](OCCO)[C@H](OC)C2)CC(=O)[C@H](C)/C=C(\C)[C@@H](O)[C@@H](OC)C(=O)[C@H](C)C[C@H](C)/C=C/C=C/C=C/1C [Everolimus] + O=C(CCCCCCC(=O)Nc1ccccc1)NO [Vorinostat] (partner 1 µM)
Procedure, shortened: as §1

EKVX was tested, and the relative viability (Everolimus + Navitoclax; first compound 0.01 µM) was 0.542, the relative viability (Everolimus + Navitoclax; first compound 0.03162 µM) was 0.75 and the relative viability (Everolimus + Navitoclax; first compound 0.1 µM) was 0.505. The relative viability (Everolimus + Navitoclax; first compound 0.3162 µM) was 0.514, the relative viability (Everolimus + Navitoclax; first compound 1 µM) was 0.654 and the relative viability (Everolimus + Linsitinib; first compound 0.01 µM) was 0.863. It also gave a relative viability (Everolimus + Linsitinib; first compound 0.03162 µM) of 0.728, a relative viability (Everolimus + Linsitinib; first compound 0.1 µM) of 0.63 and a relative viability (Everolimus + Linsitinib; first compound 0.3162 µM) of 0.402. The relative viability (Everolimus + Linsitinib; first compound 1 µM) was 0.568, the relative viability (Everolimus + Alpelisib; first compound 0.01 µM) was 0.479 and the relative viability (Everolimus + Alpelisib; first compound 0.03162 µM) was 0.48. It also gave a relative viability (Everolimus + Alpelisib; first compound 0.1 µM) of 0.436, a relative viability (Everolimus + Alpelisib; first compound 0.3162 µM) of 0.61 and a relative viability (Everolimus + Alpelisib; first compound 1 µM) of 0.449. For the same cell line, the relative viability (Everolimus + Vorinostat; first compound 0.01 µM) was 0.72, the relative viability (Everolimus + Vorinostat; first compound 0.03162 µM) was 0.567 and the relative viability (Everolimus + Vorinostat; first compound 0.1 µM) was 0.429. It also gave a relative viability (Everolimus + Vorinostat; first compound 0.3162 µM) of 0.451 and a relative viability (Everolimus + Vorinostat; first compound 1 µM) of 0.425.

NCI-H1734 gave a relative viability (Everolimus + Navitoclax; first compound 0.01 µM) of 0.455, a relative viability (Everolimus + Navitoclax; first compound 0.03162 µM) of 0.519 and a relative viability (Everolimus + Navitoclax; first compound 0.1 µM) of 0.447. The relative viability (Everolimus + Navitoclax; first compound 0.3162 µM) was 0.441, the relative viability (Everolimus + Navitoclax; first compound 1 µM) was 0.608 and the relative viability (Everolimus + Linsitinib; first compound 0.01 µM) was 0.416. The relative viability (Everolimus + Linsitinib; first compound 0.03162 µM) was 0.568, the relative viability (Everolimus + Linsitinib; first compound 0.1 µM) was 0.518 and the relative viability (Everolimus + Linsitinib; first compound 0.3162 µM) was 0.467. For the same cell line, the relative viability (Everolimus + Linsitinib; first compound 1 µM) was 0.575, the relative viability (Everolimus + Alpelisib; first compound 0.01 µM) was 0.449 and the relative viability (Everolimus + Alpelisib; first compound 0.03162 µM) was 0.398. For the same cell line, the relative viability (Everolimus + Alpelisib; first compound 0.1 µM) was 0.466, the relative viability (Everolimus + Alpelisib; first compound 0.3162 µM) was 0.399 and the relative viability (Everolimus + Alpelisib; first compound 1 µM) was 0.463. For the same cell line, the relative viability (Everolimus + Vorinostat; first compound 0.01 µM) was 0.613, the relative viability (Everolimus + Vorinostat; first compound 0.03162 µM) was 0.606 and the relative viability (Everolimus + Vorinostat; first compound 0.1 µM) was 0.505. It also gave a relative viability (Everolimus + Vorinostat; first compound 0.3162 µM) of 0.422 and a relative viability (Everolimus + Vorinostat; first compound 1 µM) of 0.563.

In the case of NCI-H520, the relative viability (Everolimus + Navitoclax; first compound 0.01 µM) is reported as 0.537, the relative viability (Everolimus + Navitoclax; first compound 0.03162 µM) is reported as 0.454 and the relative viability (Everolimus + Navitoclax; first compound 0.1 µM) is reported as 0.421. It also gave a relative viability (Everolimus + Navitoclax; first compound 0.3162 µM) of 0.535, a relative viability (Everolimus + Navitoclax; first compound 1 µM) of 0.445 and a relative viability (Everolimus + Linsitinib; first compound 0.01 µM) of 0.533. For the same cell line, the relative viability (Everolimus + Linsitinib; first compound 0.03162 µM) was 0.441, the relative viability (Everolimus + Linsitinib; first compound 0.1 µM) was 0.532 and the relative viability (Everolimus + Linsitinib; first compound 0.3162 µM) was 0.343. For the same cell line, the relative viability (Everolimus + Linsitinib; first compound 1 µM) was 0.372, the relative viability (Everolimus + Alpelisib; first compound 0.01 µM) was 0.434 and the relative viability (Everolimus + Alpelisib; first compound 0.03162 µM) was 0.474. The relative viability (Everolimus + Alpelisib; first compound 0.1 µM) was 0.335, the relative viability (Everolimus + Alpelisib; first compound 0.3162 µM) was 0.296 and the relative viability (Everolimus + Alpelisib; first compound 1 µM) was 0.257. It also gave a relative viability (Everolimus + Vorinostat; first compound 0.01 µM) of 0.455, a relative viability (Everolimus + Vorinostat; first compound 0.03162 µM) of 0.373 and a relative viability (Everolimus + Vorinostat; first compound 0.1 µM) of 0.439. For the same cell line, the relative viability (Everolimus + Vorinostat; first compound 0.3162 µM) was 0.394 and the relative viability (Everolimus + Vorinostat; first compound 1 µM) was 0.387.

For EPLC-272H, the relative viability (Everolimus + Navitoclax; first compound 0.01 µM) was 0.996, the relative viability (Everolimus + Navitoclax; first compound 0.03162 µM) was 0.697 and the relative viability (Everolimus + Navitoclax; first compound 0.1 µM) was 0.598. It also gave a relative viability (Everolimus + Navitoclax; first compound 0.3162 µM) of 0.602, a relative viability (Everolimus + Navitoclax; first compound 1 µM) of 0.673 and a relative viability (Everolimus + Linsitinib; first compound 0.01 µM) of 1.15. For the same cell line, the relative viability (Everolimus + Linsitinib; first compound 0.03162 µM) was 0.786, the relative viability (Everolimus + Linsitinib; first compound 0.1 µM) was 0.64 and the relative viability (Everolimus + Linsitinib; first compound 0.3162 µM) was 0.619. The relative viability (Everolimus + Linsitinib; first compound 1 µM) was 0.657, the relative viability (Everolimus + Alpelisib; first compound 0.01 µM) was 0.797 and the relative viability (Everolimus + Alpelisib; first compound 0.03162 µM) was 0.577. The relative viability (Everolimus + Alpelisib; first compound 0.1 µM) was 0.592, the relative viability (Everolimus + Alpelisib; first compound 0.3162 µM) was 0.586 and the relative viability (Everolimus + Alpelisib; first compound 1 µM) was 0.638. For the same cell line, the relative viability (Everolimus + Vorinostat; first compound 0.01 µM) was 0.512, the relative viability (Everolimus + Vorinostat; first compound 0.03162 µM) was 0.306 and the relative viability (Everolimus + Vorinostat; first compound 0.1 µM) was 0.289. The relative viability (Everolimus + Vorinostat; first compound 0.3162 µM) was 0.336 and the relative viability (Everolimus + Vorinostat; first compound 1 µM) was 0.305.

In the case of UMC-11, the relative viability (Everolimus + Navitoclax; first compound 0.01 µM) is reported as 0.171, the relative viability (Everolimus + Navitoclax; first compound 0.03162 µM) is reported as 0.164 and the relative viability (Everolimus + Navitoclax; first compound 0.1 µM) is reported as 0.166. For the same cell line, the relative viability (Everolimus + Navitoclax; first compound 0.3162 µM) was 0.207, the relative viability (Everolimus + Navitoclax; first compound 1 µM) was 0.179 and the relative viability (Everolimus + Linsitinib; first compound 0.01 µM) was 0.443. The relative viability (Everolimus + Linsitinib; first compound 0.03162 µM) was 0.391, the relative viability (Everolimus + Linsitinib; first compound 0.1 µM) was 0.419 and the relative viability (Everolimus + Linsitinib; first compound 0.3162 µM) was 0.388. The relative viability (Everolimus + Linsitinib; first compound 1 µM) was 0.393, the relative viability (Everolimus + Alpelisib; first compound 0.01 µM) was 0.348 and the relative viability (Everolimus + Alpelisib; first compound 0.03162 µM) was 0.304. For the same cell line, the relative viability (Everolimus + Alpelisib; first compound 0.1 µM) was 0.301, the relative viability (Everolimus + Alpelisib; first compound 0.3162 µM) was 0.32 and the relative viability (Everolimus + Alpelisib; first compound 1 µM) was 0.311. The relative viability (Everolimus + Vorinostat; first compound 0.01 µM) was 0.213, the relative viability (Everolimus + Vorinostat; first compound 0.03162 µM) was 0.196 and the relative viability (Everolimus + Vorinostat; first compound 0.1 µM) was 0.19. The relative viability (Everolimus + Vorinostat; first compound 0.3162 µM) was 0.187 and the relative viability (Everolimus + Vorinostat; first compound 1 µM) was 0.213.

With NCI-H1993 the relative viability (Everolimus + Navitoclax; first compound 0.01 µM) was 0.687, the relative viability (Everolimus + Navitoclax; first compound 0.03162 µM) was 0.676 and the relative viability (Everolimus + Navitoclax; first compound 0.1 µM) was 0.631. The relative viability (Everolimus + Navitoclax; first compound 0.3162 µM) was 0.585, the relative viability (Everolimus + Navitoclax; first compound 1 µM) was 0.717 and the relative viability (Everolimus + Linsitinib; first compound 0.01 µM) was 0.689. The relative viability (Everolimus + Linsitinib; first compound 0.03162 µM) was 0.63, the relative viability (Everolimus + Linsitinib; first compound 0.1 µM) was 0.666 and the relative viability (Everolimus + Linsitinib; first compound 0.3162 µM) was 0.694. The relative viability (Everolimus + Linsitinib; first compound 1 µM) was 0.691, the relative viability (Everolimus + Alpelisib; first compound 0.01 µM) was 0.674 and the relative viability (Everolimus + Alpelisib; first compound 0.03162 µM) was 0.654. For the same cell line, the relative viability (Everolimus + Alpelisib; first compound 0.1 µM) was 0.602, the relative viability (Everolimus + Alpelisib; first compound 0.3162 µM) was 0.627 and the relative viability (Everolimus + Alpelisib; first compound 1 µM) was 0.672. It also gave a relative viability (Everolimus + Vorinostat; first compound 0.01 µM) of 0.429, a relative viability (Everolimus + Vorinostat; first compound 0.03162 µM) of 0.488 and a relative viability (Everolimus + Vorinostat; first compound 0.1 µM) of 0.438. The relative viability (Everolimus + Vorinostat; first compound 0.3162 µM) was 0.377 and the relative viability (Everolimus + Vorinostat; first compound 1 µM) was 0.508.

NCI-H596 was tested, and the relative viability (Everolimus + Navitoclax; first compound 0.01 µM) was 0.427, the relative viability (Everolimus + Navitoclax; first compound 0.03162 µM) was 0.361 and the relative viability (Everolimus + Navitoclax; first compound 0.1 µM) was 0.394. The relative viability (Everolimus + Navitoclax; first compound 0.3162 µM) was 0.374, the relative viability (Everolimus + Navitoclax; first compound 1 µM) was 0.369 and the relative viability (Everolimus + Linsitinib; first compound 0.01 µM) was 0.653. It also gave a relative viability (Everolimus + Linsitinib; first compound 0.03162 µM) of 0.651, a relative viability (Everolimus + Linsitinib; first compound 0.1 µM) of 0.53 and a relative viability (Everolimus + Linsitinib; first compound 0.3162 µM) of 0.532. The relative viability (Everolimus + Linsitinib; first compound 1 µM) was 0.515, the relative viability (Everolimus + Alpelisib; first compound 0.01 µM) was 0.386 and the relative viability (Everolimus + Alpelisib; first compound 0.03162 µM) was 0.297. The relative viability (Everolimus + Alpelisib; first compound 0.1 µM) was 0.347, the relative viability (Everolimus + Alpelisib; first compound 0.3162 µM) was 0.382 and the relative viability (Everolimus + Alpelisib; first compound 1 µM) was 0.37. It also gave a relative viability (Everolimus + Vorinostat; first compound 0.01 µM) of 0.505, a relative viability (Everolimus + Vorinostat; first compound 0.03162 µM) of 0.741 and a relative viability (Everolimus + Vorinostat; first compound 0.1 µM) of 0.414. For the same cell line, the relative viability (Everolimus + Vorinostat; first compound 0.3162 µM) was 0.421 and the relative viability (Everolimus + Vorinostat; first compound 1 µM) was 0.419.
